The text below walks through data of paper PMC11582173, “Synthesis, cytotoxicity, anti-inflammatory, anti-metastatic and anti-oxidant activities of novel chalcones incorporating 2-phenoxy-N-arylacetamide and thiophene moieties: induction of apoptosis in MCF7 and HEP2 cells” (Naunyn-Schmiedeberg's Archives of Pharmacology, 2024).

Several values for one entry are separate records, joined by “and”; a condition that tells them apart may be missing. Equal entries are not always repeated.

The subject of assay [1] is normal African Green monkey kidney cell line (VERO). Put plainly: SRB cytotoxic assay, VERO normal cells. Type of assay: cell-based. The following applies: Chlorocebus sabaeus, single dose 100 µg/mL, 48 h, read-out: %Inhibition at100 µg/mL VERO. The method, then: All the prepared compounds were screened at a concentration of 100 µg/mL against six different human cell lines: human laryngeal carcinoma (HEP2), human colorectal carcinoma (HCT116), human breast carcinoma (MCF7), human Lung carcinoma (A549), human liver carcinoma (HEPG2), and normal African Green monkey kidney cell line (VERO). Doxorubicin was used as a positive control for comparison purposes.
The human laryngeal carcinoma (HEP2), colorectal carcinoma (HCT116), breast carcinoma (MCF7), Lung carcinoma (A549), liver carcinoma (HEPG2), and normal African Green monkey kidney cell line (VERO) were purchased from American Tissue Culture Collection (Rockville, MD, USA). The cells were treated for 48 h with a single dose (100 µg/mL) of all the tested chalcones. […] In brief, the cells were seeded in a 96-well microtiter plate at a concentration of 5×10^3 cells/well in 100 µL fresh RPMI-1640 medium and left to attach to the plates for 24 h. Then, cells were incubated with 100 μL of different concentrations (50, 25, 12.5, 6.25, and 0.0 µg/mL) of 5c in triplicate at 37 °C for 48 h. After that, the cells were fixed with 10 µL cold 100% Trichloroacetic acid (TCA) for 1h at 4 °C. The wells were then washed 1 time with distilled water using (automatic Tecan washer, Germany) and stained for 30 min at room temperature with 50 µL 0.4% SRB dissolved in 1% acetic acid. The plates were air-dried and the dye was solubilized with 100 µl/well of 1M tris base (pH 10.5) for 5 min. The optical density (O.D.) of each well was measured spectrophotometrically at 570 nm with an ELISA microplate reader (Sunrise Tecan reader, Germany) with automatic shaking for 30 seconds before reading. The mean background absorbance was subtracted automatically and mean values for each drug concentration were calculated. The percentage of cell survival was calculated as follows: Survival fraction= O.D. (treated cells)/ O.D. (control cells) (Bhat et al. [2023]).
On the technique in general: Sulforhodamine B stains cellular protein and so reports cell mass.

The test system of another assay is BAX. Put plainly: ELISA, BAX concentration. Type of assay: cell-based, human. The method, then:
(§1) The concentrations of matrix metalloproteinase-2 (MMP2), matrix metalloproteinase-9 (MMP9), Bcl2, BAX, P53, Malondialdehyde (MDA), Glutathione (GSH), caspase 8, caspase 9 and IL-6 were measured quantitatively in 5c treated MCF7 and HEP2 cells using ELISA (Enzyme-Linked Immunosorbent Assay) (Table 4). Gelatinases are a collective word for MMP-2 and MMP-9, where MMP-2 is gelatinase-A and MMP-9 is gelatinase-B. Solid tumor invasion, metastasis, and angiogenesis have long been linked to gelatinases (Das et al. [2021]). […] Bcl2 is a crucial protein that targets apoptosis inhibition. It is regarded as a predictive biomarker or therapeutic target in the diagnosis of cancer due to its broad expression in a variety of cancers (Porter et al. [2009]). […] The pro-apoptotic protein BAX permeabilizes the mitochondrial outer membrane by changing from a cytosolic monomer to a hazardous oligomer triggering the apoptosis process (Fulda and Debatin [2006]). […] P53 transcription factor performs an essential tumor suppressor role by coordinating a wide range of physiological responses, including DNA repair, cell cycle arrest, cellular senescence, cell death, cell differentiation, and metabolism (Liebl and Hofmann [2021]). It was activated in MCF7 and HEP2-treated cells with values (4.28 and 3.109 ng/mL), respectively, compared to their controls (3.44 and 2.06 ng/mL). […]

Another assay deals with P53. Put plainly: ELISA, P53 concentration. Type of assay: cell-based, human. The method, then:
as §1
Background: In an ELISA, binding on a coated surface is turned into a signal by an enzyme label.

A further assay relates to Malondialdehyde (MDA). Put plainly: ELISA, MDA concentration. Type of assay: cell-based, human. The method, then:
as §1

Regarding `COc1ccc(NC(=O)COc2ccc(C=CC(=O)c3cccs3)cc2)cc1` [Compound 5c, N-(4-Methoxyphenyl)-2-(4-(3-oxo-3-(thiophen-2-yl)prop-1-en-1-yl)phenoxy)acetamide], in assay [1], the inhibition at 100 µg/mL amounted to 58 ± 1.5%. Also, the BAX concentration in the assay with BAX (5c treated HEP2 cells, untreated 1261.8±7.38) was 1342.8 pg/mL and 1342.8 ± 12.7 pg/mL; with BAX (5c treated MCF7 cells, untreated 946.30±12.7), 1099.36 pg/mL and 1099.36 ± 12.8 pg/mL. Further, the P53 concentration in the assay with P53 (5c treated HEP2 cells, untreated 2.06±0.425) was 3.109 ng/mL and 3.109 ± 0.089 ng/mL; in the assay with P53 (5c treated MCF7 cells, untreated 3.44±0.25) it was 4.28 ng/mL and 4.28 ± 0.188 ng/mL. The MDA concentration was 11.988 nM and 11.988 ± 0.178 nM in the assay on Malondialdehyde (MDA) (5c treated HEP2 cells, untreated 17.44±0.309); 8.79 nM and 8.79 ± 0.309 nM in the assay on Malondialdehyde (MDA) (5c treated MCF7 cells, untreated 15.79±0.178).
